# Reference: USRE37781E1, “Substituted cyclic carbonyls and derivatives thereof useful as retroviral protease inhibitors” (DuPont Pharmaceuticals Company, priority 1991, dated 2002)
# pKi: −log10 of the molar value.
# Biological target: single-chain tethered dimer of HIV protease (Human immunodeficiency virus 1, UniProt P04585)
# Assay: biochemical
# Type: biochemical
# Parameters: fused on or other part: A second copy of the same protease unit is joined to the first by a short peptide tether, giving one polypeptide
# Settings: Table 2e; read-out: K4 HPLC
# Protocol: HIV Protease Inhibition Assay—HPLC Method
# Active protease was prepared as described therein by extraction with 67% acetic acid, dilution 33-fold with water, dialysis against water and then against a “refolding buffer” consisting of 20 mM MES, 1 mM dithiothreitol and 10% glycerol. Protease was stored as a stock preparation at 10 uM in refolding buffer.
# Substrate: Peptide of sequence: aminobenzoyl-Ala-Thr-His-Gln-Val-Tyr-Phe(NO2)-Val-Arg-Lys-Ala containing p-nitrophenylalanine, was prepared by solid phase synthesis as previously described Cheng et al., op.cit. Stock solutions of 2 mM substrate were prepared in DMSO.
# Inhibitory compounds were dissolved in sufficient DMSO to make 3 mM stock solutions. All further dilutions were prepared in “assay buffer”: 1M NaCl, 50 mM MES, pH 5.5, 1 mM EDTA, 1 mM DTT, […] glycerol.
# Enzyme reaction: In a 2 ml screw-cap centrifuge tube were added 50 ul protease (final concentration 0.25 nM) and 0.1 ml inhibitory compound (final concentration […]). After 15 min preincubation at room temperature, the reaction was started with the addition of 0.05 ml substrate (final concentration 5 uM). Incubation was carried out at 30 C. for 1 hr. The reaction was stopped with 1 ml 0.1M ammonium hydroxide.
# HPLC measurement of product formation: The product (aminobenzoyl-Ala-Thr-His-Gln-Val-Tyr) was separated from substrate on a Pharmacia MonoQ anion exchange column. The injection volume was 0.2 ml. The mobile phases were: A (20 mM trisHCl, pH 9.0, 0.02% sodium Azide, 10% acetonitrile), B (20 mM tris HCl, pH 9.0, 0.02% sodium azide, 0.5M ammonium formate, 10% acetonitrile). The mobile phases were pumped at 1 ml/min, with a gradient from 0 to 30% B in 5 min, 100% B for 4 min to wash the column, and a re-equilibration for 4 min. The retention time of the product was 3.6 min. Detection with a Shimadzu model RF535 fluorescence monitor was at 330 nm (excitation) and 430 (emission).
row,SMILES,pKi
1,C=CCN1C(=O)N(CCCC)C(C)C(O)C(O)C1C (stereo not shown) [Example 16F],< 6.00
2,O=C1N(Cc2ccccc2)C(CCCCO)C(O)C(O)C(CCCCO)N1Cc1ccccc1 (stereo not shown) [Example 16AO],< 6.00
3,C=CCN1C(=O)N(CC=C)C(CCCCCCCC)C(O)C(O)C1CCCCCCCC (stereo not shown) [Example 16AP],6.00 to 8.00
4,CSCCC1C(O)C(O)C(CCSC)N(Cc2ccc(CO)cc2)C(=O)N1Cc1ccc(CO)cc1 (stereo not shown) [16AF],< 6.00
5,CCCCCCN1C(=O)N(CCCCCC)C(C(C)C)C(O)C(O)C1C(C)C (stereo not shown) [Example 16X],> 8.00
6,CCCCC1C(O)C(O)C(CCCC)N(Cc2ccccc2)C(=O)N1Cc1ccccc1 (stereo not shown) [Example 16AG],< 6.00
7,O=C1N(Cc2ccccc2)C(Cc2c[nH]c3ccccc23)C(O)C(O)C(Cc2c[nH]c3ccccc23)N1Cc1ccccc1 (stereo not shown) [Example 16Y],6.00 to 8.00
8,O=C1N(Cc2ccccc2)C(CCCCCO)C(O)C(O)C(CCCCCO)N1Cc1ccccc1 (stereo not shown) [Example 16AN],< 6.00
9,CC(C)CC1C(O)C(O)C(CC(C)C)N(CC2CC2)C(=O)N1CC1CC1 (stereo not shown) [Example 16J],> 8.00
10,C=CCCCC1C(O)C(O)C(CCCC=C)N(CC=C)C(=O)N1CC=C (stereo not shown) [Example 16AR],< 6.00
11,NC(=NO)c1cccc(CN2C(=O)N(Cc3cccc(C(N)=NO)c3)C(Cc3cccs3)C(O)C(O)C2Cc2cccs2)c1 (stereo not shown) [16P],> 8.00
12,COc1ccccc1CC1C(O)C(O)C(Cc2ccccc2OC)N(Cc2ccccc2)C(=O)N1Cc1ccccc1 (stereo not shown) [Example 16T],6.00 to 8.00
13,CSCCC1C(O)C(O)C(CCSC)N(Cc2ccccc2)C(=O)N1Cc1ccccc1 (stereo not shown) [Example 16AA],< 6.00
14,C=CCCCC1C(O)C(O)C(CCCC=C)N(Cc2ccccc2)C(=O)N1Cc1ccccc1 (stereo not shown) [Example 16AL],< 6.00

# Same assay, conditions: Table 2f; read-out: HPLC Ki
row,SMILES,pKi
1,ON=C1N(Cc2ccccc2)C(Cc2ccccc2)C(O)C(O)C(Cc2ccccc2)N1Cc1ccccc1 (stereo not shown) [Example 17A],6.00 to 8.00

# Same assay, conditions: Table 2i; read-out: HPLC Ki
row,SMILES,pKi
1,O=C1N(Cc2ccc(CO)cc2)C(Cc2ccc(F)cc2)C(O)C(O)C(Cc2ccc(F)cc2)N1Cc1ccc(CO)cc1 (stereo not shown) [20I],> 8.00
2,C=CCN1C(=O)N(CC=C)C(Cc2ccc(OC)cc2)C(O)C(O)C1Cc1ccc(OC)cc1 (stereo not shown) [20AL],> 8.00
3,O=C1N(Cc2ccccc2)[C@H](Cc2ccc(O)cc2)[C@H](O)[C@@H](O)[C@@H](Cc2ccc(O)cc2)N1Cc1ccccc1 [20AK],> 8.00
4,COc1ccc(CC2C(O)C(O)C(Cc3ccc(OC)cc3)N(Cc3ccc(CO)cc3)C(=O)N2Cc2ccc(CO)cc2)cc1 (stereo not shown) [20AJ],> 8.00
5,COc1ccc(CC2C(O)C(O)C(Cc3ccc(OC)cc3)N(CC3CC3)C(=O)N2CC2CC2)cc1 (stereo not shown) [20AF],> 8.00
6,O=C1N(Cc2ccccc2)C(Cc2ccc(OCCO)cc2)C(O)C(O)C(Cc2ccc(OCCO)cc2)N1Cc1ccccc1 (stereo not shown) [20AM],> 8.00
7,COc1ccc(CC2C(O)C(O)C(Cc3ccc(OC)cc3)N(Cc3ccc4ccccc4c3)C(=O)N2Cc2ccc3ccccc3c2)cc1 (stereo not shown) [20AH],> 8.00
8,CCOC(=O)COc1cccc(CC2C(O)C(O)C(Cc3cccc(OCC(=O)OCC)c3)N(CC3CC3)C(=O)N2CC2CC2)c1 (stereo not shown) [20AV],6.00 to 8.00
9,COc1ccc(CC2C(O)C(O)C(Cc3ccc(OC)cc3)N(Cc3ccccc3)C(=O)N2Cc2ccccc2)cc1 (stereo not shown) [20AG],> 8.00

# Same assay, conditions: Table 2m; read-out: HPLC Ki
row,SMILES,pKi
1,O=C(NCCN1CCOCC1)c1cccc(CN2C(Cc3ccccc3)C(O)C(O)C(Cc3ccccc3)N(Cc3cccc(C(=O)NCCN4CCOCC4)c3)S2(=O)=O)c1 (stereo not shown) [23Z],6.00 to 8.00

# Same assay, conditions: Table 2d; HIV protease inhibition, HPLC method; read-out: HPLC K1
row,SMILES,pKi
1,CN(C)CCNC(=O)c1cccc(CN2C(=O)N(Cc3cccc(C(=O)NCCN(C)C)c3)C(Cc3ccccc3)C(O)C(O)C2Cc2ccccc2)c1 (stereo not shown) [15XV],> 8.00
2,O=C1N(Cc2cccc(-c3cc[nH]n3)c2)C(Cc2ccccc2)C(O)C(O)C(Cc2ccccc2)N1Cc1cccc(-c2cc[nH]n2)c1 (stereo not shown) [Example 15XO],> 8.00
3,O=C1N(Cc2ccc3nnn(O)c3c2)C(Cc2ccccc2)C(O)C(O)C(Cc2ccccc2)N1Cc1ccc2nnn(O)c2c1 (stereo not shown) [15CU],6.00 to 8.00
4,CNc1noc2ccc(CN3C(=O)N(Cc4ccc5onc(NC)c5c4)C(Cc4ccccc4)C(O)C(O)C3Cc3ccccc3)cc12 (stereo not shown) [15DK],> 8.00
5,O=C1NC(Cc2ccccc2)C(O)C(O)C(Cc2ccccc2)N1Cc1ccc2[nH]nnc2c1 (stereo not shown) [15DM],> 8.00

# Same assay, conditions: Table 2d; class symbols; read-out: HPLC K1
row,SMILES,pKi
1,NC(Cc1ccccc1)C(=O)Nc1cccc(CN2C(=O)N(Cc3cccc(NC(=O)C(N)Cc4ccccc4)c3)C(Cc3ccccc3)C(O)C(O)C2Cc2ccccc2)c1 (stereo not shown) [15V],> 8.00
2,Cc1cncc(OCc2ccccc2)c1CN1C(=O)N(Cc2c(C)cncc2OCc2ccccc2)C(Cc2ccccc2)C(O)C(O)C1Cc1ccccc1 (stereo not shown) [Example 14J],6.00 to 8.00
3,O=C1N(CC2CC2c2ccccc2)C(Cc2ccccc2)C(O)C(O)C(Cc2ccccc2)N1CC1CC1c1ccccc1 (stereo not shown) [Example 14H],6.00 to 8.00
4,O=C1N(CC2CC2(c2ccccc2)c2ccccc2)C(Cc2ccccc2)C(O)C(O)C(Cc2ccccc2)N1CC1CC1(c1ccccc1)c1ccccc1 (stereo not shown) [Example 14F],6.00 to 8.00
5,O=C1N(CC2CC2CO)C(Cc2ccccc2)C(O)C(O)C(Cc2ccccc2)N1CC1CC1CO (stereo not shown) [Example 12L],< 6.00
6,O=C(NC(Cc1ccccc1)C(=O)Nc1cccc(CN2C(=O)N(Cc3cccc(NC(=O)C(Cc4ccccc4)NC(=O)OCc4ccccc4)c3)C(Cc3ccccc3)C(O)C(O)C2Cc2ccccc2)c1)OCc1ccccc1 (stereo not shown) [15T],> 8.00
7,CC(N)C(=O)Nc1cccc(CN2C(=O)N(Cc3cccc(NC(=O)C(C)N)c3)C(Cc3ccccc3)C(O)C(O)C2Cc2ccccc2)c1 (stereo not shown) [15U],> 8.00
8,O=C1NC(Cc2ccccc2)C(O)C(O)C(Cc2ccccc2)N1CC1CC1CCCO (stereo not shown) [Example 13A],6.00 to 8.00
9,O=C1NC(Cc2ccccc2)C(O)C(O)C(Cc2ccccc2)N1CC1CC1c1ccccc1 (stereo not shown) [Example 14I],6.00 to 8.00

# Same assay, conditions: read-out: HPLC K1; HIV protease inhibition, HPLC method; Table 2d
row,SMILES,pKi
1,C=CC(=C)CN1C(=O)N(CC(=C)C=C)C(Cc2ccccc2)C(O)C(O)C1Cc1ccccc1 (stereo not shown) [Example 15FX],6.00 to 8.00
2,O=C1N(CCCCCn2cccn2)C(Cc2ccccc2)C(O)C(O)C(Cc2ccccc2)N1CCCCCn1cccn1 (stereo not shown) [15FL],< 6.00

# Same assay, conditions: read-out: HPLC K1; Table 2d; class symbols
row,SMILES,pKi
1,O=C1N(Cc2ccccc2)C(Cc2ccccc2)C(O)C(O)C(Cc2ccccc2)N1Cc1ccccc1 (stereo not shown) [Example 13Y],< 6.00
2,O=C1N(Cc2ccccc2)C(Cc2ccccc2)C(O)C(O)C(Cc2ccccc2)N1Cc1ccccc1 (stereo not shown) [Example 13Q],< 6.00
3,CCCCCC#CCN1C(=O)N(CC#CCCCCC)C(Cc2ccccc2)C(O)C(O)C1Cc1ccccc1 (stereo not shown) [Example 14E],6.00 to 8.00

# Same assay, conditions: read-out: HPLC Ki; Table 2i
row,SMILES,pKi
1,O=C1N(Cc2cccc(O)c2)C(Cc2ccc(F)cc2)C(O)C(O)C(Cc2ccc(F)cc2)N1Cc1cccc(O)c1 (stereo not shown) [Example 20G],> 8.00

# Same assay, conditions: read-out: HPLC Ki; Table 1d, lower part
row,SMILES,pKi
1,O=C1N(CC2CC2)C(Cc2ccccc2)c2ncoc2C(Cc2ccccc2)N1CC1CC1 (stereo not shown) [Example 7AD],6.00 to 8.00
2,COC1C(O)C(Cc2ccccc2)N(CC2CC2)C(=O)N(CC2CC2)C1Cc1ccccc1 (stereo not shown) [Example 7AE],6.00 to 8.00
3,COC1C(OC)C(Cc2ccccc2)N(CC2CC2)C(=O)N(CC2CC2)C1Cc1ccccc1 (stereo not shown) [Example 7AF],< 6.00
4,COCCOCO[C@@H]1C(=O)[C@@H](Cc2ccccc2)N(CC2CC2)C(=O)N(CC2CC2)[C@@H]1Cc1ccccc1 [Example 7AA],< 6.00
5,O=C1N(CC2CC2)C(Cc2ccccc2)C(=NO)C(O)C(Cc2ccccc2)N1CC1CC1 (stereo not shown) [Example 7AB],< 6.00

# Same assay, conditions: read-out: K4 HPLC; Table 2e
row,SMILES,pKi
1,CCCCN1C(=O)N(CCCC)C(CC(C)C)C(O)C(O)C1CC(C)C (stereo not shown) [Example 16AE],6.00 to 8.00
2,C=CCN1C(=O)N(CC=C)C(C)C(O)C(O)C1C (stereo not shown) [Example 16E],< 6.00
3,C=CCN1C(=O)N(CC=C)C(C(C)C)C(O)C(O)C1C(C)C (stereo not shown) [Example 16C],6.00 to 8.00
4,C=CCN1C(=O)N(CC=C)C(CC(C)C)C(O)C(O)C1CC(C)C (stereo not shown) [Example 16I],> 8.00
5,CC(C)CC1C(O)C(O)C(CC(C)C)N(Cc2ccccc2)C(=O)N1Cc1ccccc1 (stereo not shown) [Example 16AD],> 8.00
6,C=CCN1C(=O)N(CC=C)C(CCc2ccccc2)C(O)C(O)C1CCc1ccccc1 (stereo not shown) [Example 16B],< 6.00
7,CC1C(O)C(O)C(C)N(Cc2ccccc2)C(=O)N1Cc1ccccc1 (stereo not shown) [Example 16G],< 6.00

# Same assay, conditions: read-out: Ki (HPLC); Table 1e, cells marked (HPLC)
row,SMILES,pKi
1,O=C1N(Cc2ccc(CCl)cc2)[C@H](CCc2ccccc2)[C@@H](O)[C@@H](Cc2ccccc2)N1Cc1ccc(CCl)cc1 [Example 8J],6.00 to 8.00
2,O=C1N(Cc2ccc(CO)cc2)[C@H](CCc2ccccc2)[C@@H](O)[C@@H](Cc2ccccc2)N1Cc1ccc(CO)cc1 [Example 8M],> 8.00

# Same assay, conditions: second table headed Table 2f; read-out: HPLC Ki
row,SMILES,pKi
1,ON=C1N(Cc2ccccc2)C(Cc2ccccc2)C(O)C(O)C(Cc2ccccc2)N1Cc1ccccc1 (stereo not shown) [Example 17A],6.00 to 8.00

# Same assay, conditions: third table headed Table 2f; read-out: HPLC Ki
row,SMILES,pKi
1,ON=C1N(Cc2ccccc2)C(Cc2ccccc2)C(O)C(O)C(Cc2ccccc2)N1Cc1ccccc1 (stereo not shown) [Example 17A],6.00 to 8.00
